Measured values taken from US9877961B2, “Anticoagulant reversal agents” (PEROSPHERE INC., priority 2011, dated 2018).
Entries after “also recorded” stand apart in the source; their conditions may differ.

Experiments:
Water solubility of DAP = format: physicochemical
Procedure: In one embodiment, wherein the pharmaceutical composition comprises the DAP compound of formula V (or its stereoisomer of formula VII) and the composition is adapted for parenteral administration in an injection, the compound is dissolved in water with appropriate tonicity and molality modifiers (such as phosphate buffered saline). DAP is water-soluble at greater than 100 mg/ml. In the one embodiment, DAP is adapted as a sterile solution for IV administration. In one aspect, the molality of the pharmaceutical composition in which DAP is adapted for IV administration is adjusted to 290 mOsm/L with sodium chloride, and the pH is adjusted to 7.4 with sodium hydroxide. Preferably the pharmaceutical composition is administered as an intravenous bolus by slow push.

[1] = Dynamic light scattering (DLS) association of DAP with unfractionated heparin; format: binding; settings: DAP:heparin 100:1 mass ratio in water
Procedure: (§1) Dynamic light scattering (DLS) was used to assess association of 1 mg/ml unfractionated heparin and 1 mg/ml bemiparin (LMWH; HIBOR®), either alone or in combination with […] DAP in water (mass ratios of 100:1 of DAP to heparin or LMWH).

[2] = DLS association of DAP with LMWH (bemiparin); format: binding
Procedure: as §1
Rivaroxaban (XARELTO®) alone, DAP alone, and DAP:rivaroxaban combinations at mass ratios of 1:1 and 10:1 were added into an aqueous solution and analyzed by dynamic light scattering (DLS) to assess association of the DAP and rivaroxaban. A similar experiment was conducted on apixaban (ELIQUIS®) alone, DAP alone, and DAP:apixaban combinations at mass ratios of 1:1, 10:1 and 100:1. Fondaparinux (ARIXTRA®) alone, DAP alone, and fondaparinux:DAP combinations at mass ratios of 1:1, 10:1 and 100:1 were similarly tested. LMWH (bemiparin; HIBOR®), alone, DAP alone, and LMWH:DAP combinations at mass ratios of 1:1, 10:1, and 100:1 were also tested. The concentration of LMWH tested was 0.1 mg/ml. Therefore, at 1:1, 0.1 mg/ml DAP was tested, at 10:1, 1 mg/ml was tested, and at 100:1, 10 mg/ml DAP was tested.

[3] = DLS association of DAP with argatroban; format: binding; settings: concentrations up to 1:1000
[4] = system: dabigatran (PRADAXA®) anticoagulation; experiment: DAP reversal of dabigatran (PRADAXA®) anticoagulation in vivo, aPTT; set-up: species or system rat
Excerpt: (§2) The activated partial thromboplastin time (aPTT) assay is an assay that measures how long it takes for the blood to clot. Blood samples are collected for direct measurement or in tubes with oxalate and citrate to arrest coagulation by calcium until the assay can be performed. In the assay, a phospholipid, an activator (silica, celite, kaolin, ellagic acid, etc.), and calcium are mixed into the plasma to induce coagulation. The assay measures the time until a thrombus (clot) forms.
A male albino rat, weighing 430 g, was administered 40 mg/kg of PRADAXA® (20 mg PRADAXA®; overdose of PRADAXA®) by oral gavage.
Approximately 2 hours into PRADAXA® treatment, 200 mg/kg DAP (100 mg DAP) was administered as an intravenous bolus injection. Approximately 2 hours later, the rat was administered a dose of 100 mg/kg of DAP (50 mg DAP). In another hour, the rat was administered another dose of 100 mg/kg of DAP (50 mg DAP). aPTT was measured throughout the course of the entire treatment.

[5] = system: unfractionated heparin anticoagulation; experiment: DAP reversal of unfractionated heparin anticoagulation in vivo, aPTT; set-up: species or system rat
Excerpt: as §2
A male albino rat, weighing 515 g, was administered 10 mg/kg of unfractionated heparin (5 mg UFH) by subcutaneous injection.
200 mg/kg of DAP (100 mg DAP) was administered as two intravenous bolus injections after UFH administration. Subsequently, the rat was administered a dose of 400 mg/kg of DAP (200 mg of DAP). aPTT was measured throughout the course of the entire treatment.

[6] = system: rivaroxaban anticoagulation; experiment: DAP reversal of rivaroxaban in human plasma ex vivo, Biophen anti-Factor Xa chromogenic assay; format: biochemical
Procedure: The anti-factor Xa assay directly measures anti-factor Xa activity. The methodology behind an anti-factor Xa assay is that patient plasma is added to a known amount of excess factor Xa and excess antithrombin. If a factor Xa inhibitor is present in the patient plasma, it will reduce the enzymatic activity of factor Xa. The amount of residual factor Xa is inversely proportional to the amount of anti-Xa agent in the plasma. The amount of residual factor Xa is detected by adding a chromogenic substrate that mimics the natural substrate of factor Xa, making residual factor Xa cleave it, releasing a colored compound that can be detected by a spectrophotometer. […]
218 μg/L or 459 μg/L of rivaroxaban was added to human plasma, with or without 1,250 μg/L or 6,250 μg/L of DAP, respectively. […] DAP effect on anticoagulation was measured by 510 k cleared Biophen anti-Factor Xa chromogenic assay. Rivaroxaban concentrations were determined by comparison with plasma calibration standards, while apixaban concentrations were inferred from stock solution dilutions as calibration standards are not yet available.
218 μg/L rivaroxaban was added to human plasma either alone or in combination with 1.25, 12.5, 125, or 1,250 μg/L of DAP. Factor Xa activity was measured by 510 k cleared Biophen anti-Xa chromogenic assay kit. Rivaroxaban concentrations were determined by comparison with plasma calibration standards.

[7] = system: argatroban anticoagulation; experiment: Argatroban dosed rats given IV DAP; format: in vivo, rat; settings: 200× IV dose of DAP
[8] = Intravenous DAP tolerability in rats; format: in vivo, rat; settings: DAP i.v. at 100 mg/kg, 250 mg/kg and 400 mg/kg in rats
[9] = Oral bioavailability of DAP in rats; format: in vivo, rat
[10] = system: dabigatran (PRADAXA®) anticoagulation; experiment: DAP reversal of dabigatran (PRADAXA®) anticoagulation in vivo, aPTT; set-up: species or system rat; settings: 15.5 mg/kg PRADAXA®, 100 mg/kg DAP (FIG. 13)

## N=C(N)NCCC[C@H](N)C(=O)NCCCN1CCN(CCCNC(=O)[C@@H](N)CCCNC(=N)N)CC1 (stereo in doubt) [DAP, 2-Amino-5-guanidino-pentanoic acid (3-{4-[3-(2-amino-5-guanidino-pentanoylamino)-propyl]-piperazin-1-yl}-propyl)-amide]
Water solubility of DAP
  solubility: > 100 mg/mL
[1]
  physical association / binding by DLS: physically associated; also recorded: directly bound
[2]
  physical association / binding by DLS: physically associated; also recorded: directly bound
[3]
  binding by DLS: did not bind
[4]; 2 hours after 100 mg DAP
  aPTT risen back after first DAP dose: 79 s
[4]; after 50 mg DAP
  aPTT risen after second DAP dose: 53 s
[4]; both times (first and second DAP dose)
  time until aPTT returned above baseline following DAP administration: ≤ 60 min
[4]; first dose, 100 mg DAP (200 mg/kg) i.v. bolus
  time until aPTT below baseline after DAP: ≤ 25 min
[4]; inferred from return of anti-coagulation in rats
  elimination half-life: short elimination half-life
[4]; intravenous bolus dose of DAP in rats
  time until PRADAXA®-induced anti-coagulation returned after DAP: 20 to 30 min
[4]; rats, aPTT
  reversal of oral dabigatran anticoagulation in vivo: reversed
[4]; second dose, 50 mg DAP (100 mg/kg)
  time until aPTT below baseline after DAP: ≤ 30 min
[4]; third dose, 100 mg/kg (50 mg) DAP i.v.
  time until aPTT dropped to baseline after DAP: ≤ 20 min
[5]; 200 mg DAP i.v., 10 minutes
  aPTT after DAP: 33 s
[5]; first 100 mg DAP i.v., 20 minutes
  aPTT after DAP: 48 s
[5]; rat, in vivo
  reversal of unfractionated heparin in vivo: reversed
[5]; second 100 mg DAP i.v., 15 minutes
  aPTT after DAP: 47 s
[5]; within 1 hour after first 100 mg DAP
  aPTT risen after first DAP dose: 120 s
[5]; within 1 hour after second 100 mg DAP
  aPTT risen after second DAP dose: 96 s
[6]; 218 μg/L rivaroxaban with 1,250 μg/L DAP, 459 μg/L rivaroxaban with 6,250 μg/L DAP
  effective anticoagulant concentration after DAP: below the minimum effective concentration
[6]; 218 μg/L rivaroxaban, 1.25, 12.5, 125, or 1,250 μg/L DAP
  dose dependence of rivaroxaban reversal: dose-responsive trend; also recorded: dose-dependent reversal
[7]
  anticoagulation of argatroban dosed rats after DAP: remained anticoagulated
[8]
  adverse effects: no adverse effect
[9]
  oral bioavailability: orally bioavailable
[10]
  time until aPTT returned to normal after DAP: ≤ 30 min
